Assay results reported in the supplement of paper PMC11061612.

Columns and labels:
Venetoclax = compound: CC1(C)CCC(CN2CCN(c3ccc(C(=O)NS(=O)(=O)c4ccc(NCC5CCOCC5)c([N+](=O)[O-])c4)c(Oc4cnc5[nH]ccc5c4)c3)CC2)=C(c2ccc(Cl)cc2)C1 [Venetoclax]; details: max 1 µM
Procedure, shortened: (§1)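 Cancer cell lines were dosed for 72 hours (final DMSO typically 0.2%) after 24 hours at 37°C and 5% CO2 in 1536-well plates containing 7.5 μl DMEM/F12 or RPMI with 10% FBS. Viability came from CellTiter-Glo 2.0 luminescence, scaled between blank-well and DMSO-well means, and dose responses were fitted to a two-parameter logistic curve with a non-linear mixed effects model. The single-agent IC50 was obtained from this fit.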

Selumetinib = compound: Cn1cnc2c(F)c(Nc3ccc(Br)cc3Cl)c(C(=O)NOCCO)cc21 [Selumetinib]
Procedure, shortened: as §1

Taselisib = compound: Cc1nc(-c2cn3c(n2)-c2ccc(-c4cnn(C(C)(C)C(N)=O)c4)cc2OCC3)n(C(C)C)n1 [Taselisib]; details: max 10 µM
Procedure, shortened: as §1

Trametinib = compound: CC(=O)Nc1cccc(-n2c(=O)n(C3CC3)c(=O)c3c(Nc4ccc(I)cc4F)n(C)c(=O)c(C)c32)c1 [Trametinib]; details: max 1 µM
Procedure, shortened: as §1

Savolitinib = compound: C[C@@H](c1ccc2nccn2c1)n1nnc2ncc(-c3cnn(C)c3)nc21 [Savolitinib]; details: max 1 µM
Procedure, shortened: as §1

Doxorubicin = compound: COc1cccc2c1C(=O)c1c(O)c3c(c(O)c1C2=O)C[C@@](O)(C(=O)CO)C[C@@H]3O[C@H]1C[C@H](N)[C@H](O)[C@H](C)O1 [Doxorubicin]; details: max 1 µM
Procedure, shortened: as §1

Alisertib = compound: COc1cc(Nc2ncc3c(n2)-c2ccc(Cl)cc2C(c2c(F)cccc2OC)=NC3)ccc1C(=O)O [Alisertib]; details: max 10 µM
Procedure, shortened: as §1

AZD1390 = compound: CC(C)n1c(=O)n(C)c2cnc3cc(F)c(-c4ccc(OCCCN5CCCCC5)nc4)cc3c21 [AZD1390]; details: max 0.3 µM
Procedure, shortened: as §1

Gefitinib = compound: COc1cc2ncnc(Nc3ccc(F)c(Cl)c3)c2cc1OCCCN1CCOCC1 [Gefitinib]; details: max 10 µM
Procedure, shortened: as §1

Prexasertib = compound: COc1cccc(OCCCN)c1-c1cc(Nc2cnc(C#N)cn2)n[nH]1 [Prexasertib]; details: max 1 µM
Procedure, shortened: as §1

Lapatinib = compound: CS(=O)(=O)CCNCc1ccc(-c2ccc3ncnc(Nc4ccc(OCc5cccc(F)c5)c(Cl)c4)c3c2)o1 [Lapatinib]; details: max 10 µM
Procedure, shortened: as §1

SN-38 = compound: CCc1c2c(nc3ccc(O)cc13)-c1cc3c(c(=O)n1C2)COC(=O)[C@]3(O)CC [SN-38]; details: max 0.3 µM
Procedure, shortened: as §1

Crizotinib = compound: C[C@@H](Oc1cc(-c2cnn(C3CCNCC3)c2)cnc1N)c1c(Cl)ccc(F)c1Cl [Crizotinib]; details: max 10 µM
Procedure, shortened: as §1

Capivasertib = compound: C1CN(CCC1(C(=O)N[C@@H](CCO)C2=CC=C(C=C2)Cl)N)C3=NC=NC4=C3C=CN4 [Capivasertib]
Procedure, shortened: as §1

Palbociclib = compound: CC(=O)c1c(C)c2cnc(Nc3ccc(N4CCNCC4)cn3)nc2n(C2CCCC2)c1=O [Palbociclib]; details: max 10 µM
Procedure, shortened: as §1

AZD8186 = compound: C[C@@H](Nc1cc(F)cc(F)c1)c1cc(C(=O)N(C)C)cc2c(=O)cc(N3CCOCC3)oc12 [AZD8186]; details: max 3 µM
Procedure, shortened: as §1

AZD0156 = compound: CN(C)CCCOc1ccc(-c2ccc3ncc4c(c3c2)n(C2CCOCC2)c(=O)n4C)cn1 [AZD0156]
Procedure, shortened: as §1

AZD5153 = compound: COc1nnc2ccc(N3CCC(c4ccc(OCCN5CCN(C)C(=O)[C@H]5C)cc4)CC3)nn12 [AZD5153]; details: max 1 µM
Procedure, shortened: as §1

Olaparib = compound: O=C(c1cc(Cc2n[nH]c(=O)c3ccccc23)ccc1F)N1CCN(C(=O)C2CC2)CC1 [Olaparib]; details: max 10 µM
Procedure, shortened: as §1

SG3199 = compound: CC1=CN2[C@@H](C1)C=NC3=CC(=C(C=C3C2=O)OC)OCCCCCOC4=C(C=C5C(=C4)N=C[C@@H]6CC(=CN6C5=O)C)OC [SG3199]; details: max 0.001 µM
Procedure, shortened: as §1

AZD6738 = compound: C[C@@H]1COCCN1C2=NC(=NC(=C2)C3(CC3)[S@](=N)(=O)C)C4=C5C=CNC5=NC=C4 [AZD6738]; details: max 10 µM
Procedure, shortened: as §1

AZD5991 = compound: Cc1c2c(nn1C)CSCc1cc(n(C)n1)CSc1cc(c3ccccc3c1)OCCCc1c(C(=O)O)n(C)c3c-2c(Cl)ccc13 [AZD5991]; details: max 1 µM
Procedure, shortened: as §1

Dasatinib = compound: CC1=C(C(=CC=C1)Cl)NC(=O)C2=CN=C(S2)NC3=CC(=NC(=N3)C)N4CCN(CC4)CCO [Dasatinib]; details: max 2 µM
Procedure, shortened: as §1

AZD2811 = compound: CCN(CCO)CCCOc1ccc2c(Nc3cc(CC(=O)Nc4cccc(F)c4)[nH]n3)ncnc2c1 [AZD2811]; details: max 1 µM
Procedure, shortened: as §1

AZD4320 = compound: CN(CC[C@H](CSC1=CC=CC=C1)NC2=C(C=C(C=C2)S(=O)(=O)NC(=O)C3=CC=C(C=C3)N4CCC(CC4)[C@H](C5=CC=CC=C5C6=CC=C(C=C6)Cl)O)S(=O)(=O)C(F)(F)F)CCO [AZD4320]; details: max 1 µM
Procedure, shortened: as §1

AZD7648 = compound: Cc1cc2ncnn2cc1Nc1ncc2c(n1)n(C1CCOCC1)c(=O)n2C [AZD7648]; details: max 10 µM
Procedure, shortened: as §1

AZD1775 = compound: C=CCn1c(=O)c2cnc(Nc3ccc(N4CCN(C)CC4)cc3)nc2n1-c1cccc(C(C)(C)O)n1 [AZD1775]
Procedure, shortened: as §1

Cell Line | IC50, cell viability 72 h (Venetoclax) [nM] | IC50, cell viability 72 h (Selumetinib; max 10 µM) [nM] | IC50, cell viability 72 h (Taselisib) [nM] | IC50, cell viability 72 h (Trametinib) [nM] | IC50, cell viability 72 h (Savolitinib) [nM] | IC50, cell viability 72 h (Doxorubicin) [nM] | IC50, cell viability 72 h (Alisertib) [nM] | IC50, cell viability 72 h (AZD1390) [nM] | IC50, cell viability 72 h (Gefitinib) [nM] | IC50, cell viability 72 h (Prexasertib) [nM] | IC50, cell viability 72 h (Lapatinib) [nM] | IC50, cell viability 72 h (SN-38) [nM] | IC50, cell viability 72 h (Crizotinib) [nM] | IC50, cell viability 72 h (Capivasertib; max 10 µM) [nM] | IC50, cell viability 72 h (Palbociclib) [nM] | IC50, cell viability 72 h (AZD8186) [nM] | IC50, cell viability 72 h (AZD0156; max 3 µM) [nM] | IC50, cell viability 72 h (AZD5153) [nM] | IC50, cell viability 72 h (Olaparib) [nM] | IC50, cell viability 72 h (SG3199) [nM] | IC50, cell viability 72 h (AZD6738) [nM] | IC50, cell viability 72 h (AZD5991) [nM] | IC50, cell viability 72 h (Dasatinib) [nM] | IC50, cell viability 72 h (AZD2811) [nM] | IC50, cell viability 72 h (AZD4320) [nM] | IC50, cell viability 72 h (AZD7648) [nM] | IC50, cell viability 72 h (AZD1775; max 3 µM) [nM] | IC50, cell viability 72 h (Selumetinib; max 3 µM) [nM] | IC50, cell viability 72 h (Capivasertib; max 3 µM) [nM] | IC50, cell viability 72 h (AZD0156; max 1 µM) [nM] | IC50, cell viability 72 h (AZD1775; max 1 µM) [nM]
EPLC-272H (Other Solid Carcinomas) | > 1000 | 2280 | 256 | 22.7 | > 1000 | > 1000 | > 10000 | > 300 | 5460 | 8.51 | 5770 | 126 | > 10000 | 1800 | > 10000 | > 3000 | > 3000 | 116 | > 10000 | > 1 | 1000 | 391 | 148 | > 1000 | > 1000 | > 10000 | 454 |  |  |  | 
ESO26 (Esophageal Adenocarcinoma) | > 1000 | > 10000 | 1840 | > 1000 | > 1000 | > 1000 | > 10000 | > 300 | 4700 | 380 | 814 | 223 | > 10000 | 8590 | > 10000 | > 3000 | > 3000 | 398 | > 10000 | > 1 | > 10000 | > 1000 | > 2000 | > 1000 | > 1000 | > 10000 | 1470 |  |  |  | 
EW-16 (Ewing's Sarcoma) | > 1000 | > 10000 | 5720 | > 1000 | > 1000 | 71.9 | 2280 | > 300 | > 10000 | 726 | > 10000 | 3.19 | > 10000 | > 10000 | > 10000 | > 3000 | > 3000 | > 1000 | > 10000 | > 1 | > 10000 | > 1000 | > 2000 | 837 | > 1000 | > 10000 | 581 |  |  |  | 
G-402 (Other Solid Carcinomas) | > 1000 | > 10000 | 2420 | 563 | > 1000 | 123 | 1970 | > 300 | > 10000 | 523 | > 10000 | 27 | 7960 | 8690 | > 10000 | > 3000 | > 3000 | 98.5 | > 10000 | > 1 | 7010 | 251 | 319 | 475 | > 1000 | > 10000 | 2700 |  |  |  | 
GA-10 (Burkitt's Lymphoma) | > 1000 | > 10000 | 845 | > 1000 | > 1000 | 369 | 147 | > 300 | > 10000 | 9.18 | > 10000 | 23.4 | 2340 | 1480 | 234 | 978 | > 3000 | 83.3 | > 10000 | > 1 | 631 | 252 | 166 | 108 | > 1000 | > 10000 | 503 |  |  |  | 
GCT (Other Solid Carcinomas) | > 1000 | > 10000 | 8270 | 846 | > 1000 | > 1000 | > 10000 | > 300 | > 10000 | > 1000 | > 10000 | 43.5 | > 10000 | 6420 | > 10000 | > 3000 | > 3000 | 603 | > 10000 | > 1 | > 10000 | > 1000 | 703 | > 1000 | > 1000 | > 10000 | > 3000 |  |  |  | 
HT55 (Colorectal Carcinoma) | > 1000 | 1150 | 753 | 30.1 | > 1000 | > 1000 | > 10000 | > 300 | > 10000 | 268 | 1750 | > 300 | > 10000 | > 10000 | 9650 | > 3000 | > 3000 | 646 | > 10000 | > 1 | > 10000 | > 1000 | > 2000 | > 1000 | > 1000 | > 10000 | 659 |  |  |  | 
TE-10 (Esophageal Squamous Cell Carcinoma) | > 1000 |  | 941 | 825 |  | 820 | 2930 |  |  | 11.9 |  | 37.1 |  |  |  | > 3000 |  |  | > 10000 | > 1 | 1600 | 290 |  | > 1000 | > 1000 | > 10000 |  | > 3000 | > 3000 | > 1000 | 381
